The results in this text go back to patent publication US20220079935A1, “COMPOUNDS AND TREATMENTS THAT ENHANCE ENTERIC NERVOUS SYSTEM FUNCTION” (The Johns Hopkins University, priority 2019, published 2022).

Entries after “also recorded” stand apart in the source; their conditions may differ.

In assay [1] the target is T1, TrkB (Mus musculus, UniProt P15209, F616A).
T1 construct: from tissue; host or cells: NTrk2 tm1Ddg/J knock-in mutant mice (in vivo; intestine)
Description: TrkB inhibition in NTrk2 tmlDdg/J mutant mice. The note with it: 1NMPP1 25 μM injected in NTrk2 tmlDdg/J mutant mice; preliminary. It is filed as in vivo.

Assay [2] relates to rat enteric glia cell line EGC/PK060399 (ATCC CRL-2690). The experiment in a line: BDNF release from cultured enteric glia cell line (BDNF ELISA). It is filed as cell-based. The method, then: FIG. 16 is a time response curve showing the BDNF secretion by enteric glial cells stimulated with 10 μM J11. The enteric glial cells (EGC/PK060399egfr, ATCC® CRL-2690™) were treated with 10 μM J11, and the conditional medium were harvested at 2, 6, 24 and 48 hours after treatment. The BDNF secretion was quantified using BDNF ELISA kit following the manufacturer's protocol.
(§1) The inventors next embarked on a strategy to identify novel therapeutic agents for NEC based upon their ability to enhance glial function and thus reduce TLR4 signaling and NEC. To do so, several libraries of FDA approved compounds were screened against the rat enteric glia cell line EGC/PK060399 (ATCC® CRL-2690™) for their ability to induce BDNF release, then the hits were validated by their ability to reduce NEC in mice. The lead hit, shown in FIG. 6A, is a C13H11NO5 compound with MW 261.23Da, herein named “J11”.
A dose-response curve was established for oxolinic acid (J11) in inducing BDNF release in the enteric glia cell line EGC/PK060399, and will be used evaluate a safety profile based upon its mean effective dose in mice. […] The BDNF secretion was quantified using BDNF ELISA kit following the manufacturer's protocol. The amount of BDNF was time dependent with the greatest secretion after 48 hours of exposure.

The subject of assay [3] is enteric glial cells (EGC/PK060399egfr, ATCC CRL-2690). The experiment in a line: BDNF mRNA expression by enteric glial cells (qPCR). The format is cell-based, rat. To be noted: 10 μM and 20 μM J11. On the procedure:
FIG. 17 depicts a time response curve showing the BDNF mRNA expression by enteric glial cells stimulated with 10 μM and 20 μM J11. The enteric glial cells (EGC/PK060399egfr, ATCC® CRL-2690™) were treated with 10 μM and 20 μM J11, and the enteric glial cells were harvested at 2, 6, 24 and 48 hours after treatment.
The enteric glial cells (EGC/PK060399egfr, ATCC® CRL-2690™) were treated with 10 μM and 20 μM J11, and the enteric glial cells were harvested at 2, 6, 24 and 48 hours after treatment. Total RNA was isolated using the RNeasy mini kit following the manufacturer's protocol. Complementary DNA was synthesized from 0.5 μg RNA using M-MLV reverse transcriptase. The qPCR analysis was performed with the Bio-Rad CFX96 Real-Time System (Biorad, Hercules, Calif.). The relative BDNF mRNA expression was normalized against the expression of housekeeping gene RPLO.
In general terms: In qPCR the cycle at which signal appears reflects the starting amount.

Assay [4] deals with intestine of wild type mice. The experiment in a line: BDNF release in the intestine after oral administration. The format is in vivo. To be noted: oral administration 20 mg/kg, wild type mice (FIG. 6C).
For assay [5], the system named is TLR4 signaling. Description: LPS-mediated TLR4 signaling in the intestine of mice. The format is in vivo. The method, then: (§2) FIGS. 5A-5K. BDNF restrains TLR4 signaling in the intestinal epithelium. 5A) enterocytes. 5B) In wild-type mice, BDNF (1 μg/kg) LPS (5 mg/kg) injection for 6 hrs. 5C) qRT-PCR of human ileum freshly harvested from patient with NEC treated with LPS (25 μg/kg) for 6 hr. 5D-H) H&E images. 5I) BDNF ELISA. 5J-K) TNFα and NEC severity. *p<0.05 by ANOVA; 5-10 mice per experiment.
(§3) Fifth, wild-type mice with NEC show reduced levels of BDNF in the intestinal mucosa (FIG. 5H-I), consistent with the reduction in glia.
as §1
(§4) The inventors sought to determine how BDNF inhibits TLR4 and thus attenuates NEC. BDNF is known to signal principally via its receptor, namely tropomyosin-related kinase B (TrkB), which the inventors now show to be present in the intestinal epithelium (FIG. 7). The inventors have now knocked down TrkB in IEC-6 enterocytes (FIG. 7A) using lentiviral delivery of TrkB shRNA.

Assay [6] relates to NEC in mice. The experiment in a line: Experimental NEC model in mice. It is filed as in vivo. On the procedure: In the inventors' NEC model, 7d old mice are gavaged with a combination of Similac Advance infant formula (Abbott Nutrition):Esbilac canine milk replacer (PetAb) in a 2:1 ratio at 50 μl/g every 3 hours, and subjected to 10 minutes of hypoxia (5% O2 95% N2 in a Billups-Rothenberg chamber) twice daily for four days, and then orally gavaged dysbiotic bacteria (1×10^5 cfu/ml) obtained from the stool of a patient with severe NEC (see our recent JCI paper for more model details^7). This protocol induces patchy intestinal necrosis and mucosal disruption which mimics human NEC in wild-type mice, but not in either TLR4^ΔIEC or TLR4^−/− littermates.

In assay [7] the test system is premature human intestine obtained after surgery for NEC. The experiment in a line: Human NEC intestine treated ex vivo with LPS. It is filed as cell-based. On the procedure: as §2, §3, §1
The test system of assay [8] is TLR4 signaling. The experiment in a line: LPS-induced cytokine expression in cultured enterocytes or enteroids. The format is cell-based, mice. To be noted: BDNF 1 μg/ml.
Description: as §3, §4

T1 sequence (P15209 32-821 F616A): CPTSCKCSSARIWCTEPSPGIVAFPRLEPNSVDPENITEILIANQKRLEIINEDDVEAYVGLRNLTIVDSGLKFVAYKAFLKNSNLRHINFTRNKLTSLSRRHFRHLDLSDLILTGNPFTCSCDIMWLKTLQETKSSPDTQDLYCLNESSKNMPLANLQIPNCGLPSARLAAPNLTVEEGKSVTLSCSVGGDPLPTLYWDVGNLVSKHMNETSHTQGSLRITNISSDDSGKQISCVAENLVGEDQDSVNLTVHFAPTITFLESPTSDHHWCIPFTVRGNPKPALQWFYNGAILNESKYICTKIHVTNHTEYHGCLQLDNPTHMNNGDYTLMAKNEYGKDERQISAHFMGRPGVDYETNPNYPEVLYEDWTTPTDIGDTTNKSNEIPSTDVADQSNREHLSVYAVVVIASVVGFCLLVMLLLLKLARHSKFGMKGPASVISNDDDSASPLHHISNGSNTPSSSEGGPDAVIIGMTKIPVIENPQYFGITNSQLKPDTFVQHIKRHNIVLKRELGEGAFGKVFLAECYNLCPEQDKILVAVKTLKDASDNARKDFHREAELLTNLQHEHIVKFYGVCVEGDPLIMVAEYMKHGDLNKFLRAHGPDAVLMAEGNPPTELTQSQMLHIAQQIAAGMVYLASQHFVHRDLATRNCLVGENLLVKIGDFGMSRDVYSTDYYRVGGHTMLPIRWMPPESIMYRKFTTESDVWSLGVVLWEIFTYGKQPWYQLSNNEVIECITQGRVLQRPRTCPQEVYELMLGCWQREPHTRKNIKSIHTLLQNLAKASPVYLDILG

With `CC(C)(C)n1nc(Cc2cccc3ccccc23)c2c(N)ncnc21` [1NMPP1], the TrkB inhibition entry in assay [1] is “preliminarily achieved TrkB inhibition”.

On to `CCn1cc(C(=O)O)c(=O)c2cc3c(cc21)OCO3` [J11, oxolinic acid], for which the “time of greatest BDNF secretion” value in assay [2] (10 μM J11, conditional medium harvested at 2, 6, 24 and 48 hours, BDNF ELISA (FIG. 16)) stood at 48 h. For the same molecule, the “BDNF release from enteric glia” value in assay [2] (cultured enteric glia (FIG. 6B)) is recorded as “induced BDNF release”. The “time of maximal BDNF mRNA expression” value in assay [3] (harvested at 2, 6, 24 and 48 hours) was determined as 24 h. In assay [3] (normalized to RPLO (FIG. 17)), the “BDNF mRNA expression” value was “stimulated”. Moreover, in assay [4], the “BDNF release in the intestine” value is reported as “induced BDNF release”. In addition, in assay [5] (LPS 5 mg/kg, wild type mice (FIG. 6D)), the “LPS-mediated TLR4 signaling in the intestine” value is “inhibited LPS (5 mg/kg)-mediated TLR4 signaling”. Also, the NEC severity entry in assay [6] (administered orally 20 mg/kg/day to 7d old mice, 20 mg/kg/day) is reported as “significantly reduced NEC severity; also recorded: prevents NEC in mice”. Besides, the “TLR4 signaling / inflammation in human NEC intestine” value in assay [7] (J11 10 μM, LPS 25 μg/ml, ex vivo) is on record as “reduced TLR4 signaling; also recorded: reduces TLR4 signaling in human tissue; also recorded: reduces inflammation in human NEC tissue ex vivo”. In addition, in assay [7] (J11 10 μM, ex vivo), the “BDNF release in human NEC intestine” value is listed as “significantly induced BDNF release”.

B1: BDNF: brain derived neurotrophic factor, enteric glia-derived peptide signalling through TrkB (protein, UniProt P23560 19-247, looked up)
Neurotrophic factor BDNF …: APMKEANIRGQGGLAYPGVRTHGTLESVNGPKAGSRGLTSLADTFEHVIEELLDEDQKVRPNEENNKDADLYTSRVMLSSQVPLEPPLLFLLEEYKNYLDAANMSMRVRRHSDPARRGELSVCDSISEWVTAADKKTAVDMSGGTVTVLEKVPVSKGQLKQYFYETKCNPMGYTKEGCRGIDKRHWNSQCRTTQSYVRALTMDSKKRIGWRFIRIDTSCVCTLTIKRGR
Consider B1, for which the “TLR4-mediated expression of pro-inflammatory cytokines in the intestinal mucosa” value in assay [5] (BDNF 1 μg/kg injection, wild type mice, 6h after LPS injection (FIG. 5B)) is given as “significantly reduced TLR4-mediated expression of the pro-inflammatory cytokines”. For the same molecule, in assay [5] (newborn mice, TrkB shRNA by oral gavage, BDNF 1 μg/kg (FIG. 7B)), the “LPS-mediated TNF induction in mice deficient in TrkB” value is listed as “no protection of LPS-mediated TNF induction by BDNF”. Besides, the “intestinal TNFα in glia KO mouse” value in assay [5] (qRT-PCR, glia KO mouse (FIG. 3B)) is given as “reversed by BDNF”. In addition, the “NEC in mice lacking TrkB in the intestinal epithelium” value in assay [6] (TrkB-lacking intestinal epithelium, BDNF administration) is “not protected by BDNF administration”. Moreover, in assay [6] (glial-KO mice, BDNF 1 μg/kg (FIGS. 5H-K)), the “NEC severity in the glial-KO mouse model” value is on record as “significantly reversed the severe NEC; also recorded: reversed by the administration of BDNF”. Further, in assay [6] (oral BDNF 1 μg/kg on each day of the model, histology and inflammatory cytokines), the NEC development entry was “significantly protected against NEC development”. For the same molecule, the “protection from LPS in ileum from NEC patients” value in assay [7] (ileum from NEC patients treated with BDNF (FIG. 5C)) is “protection was seen”. For the same molecule, the TLR4-induced cytokine expression entry in assay [8] (LPS 50 μg/ml, cultured enterocytes or enteroids from wild-type mice (FIG. 5A)) is listed as “reduced TLR4 signaling”. Moreover, the “LPS induced IL-6 expression after TrkB knockdown” value in assay [8] (IEC-6 cells with TrkB shRNA, LPS 50 μg/ml (FIG. 7A)) was “knockdown of TrkB prevented BDNF (1 μg/ml)-mediated protection; also recorded: prevents BDNF protection of LPS TLR4-induced cytokine expression”.
